Data from patent US12350247B2, “Use of APE1/Ref-1 inhibitors for treatment of retinal diseases” (Indiana University Research and Technology Corporation, priority 2017, dated 2025).

Tests used:
[1] = test system: human adenocarcinoma colon suspension cell line Colo-201; assay: Alamar blue cytotoxicity combination assay (CalcuSyn); format: cell-based
Experimental: Colo-201 (Yunhua Liu) was seeded in a 96-well tissue culture plate at 2000 cells/well in RPMI+Sodium Pyruvate+10% FBS and grown overnight at 37° C., 5% CO2. 2× Drug Media RPMI+Sodium Pyruvate+5% FBS was added at dosages of APX3330 (Apexian) in a 5-point spread from 75 uM to 6.3 uM and spiked with CPI-613 (Apexbio Technology) at 75 uM, or 50 uM, or alone for single agent. Cells were incubated 72 hours at 37° C., 5% CO2 and then 10% Alamar blue fluorescent cell viability indicator (INVITROGEN™) was added directly to plate. Indicator was incubated 4 hours at 37° C., 5% CO2, and then read on a fluorescent reader (SYNERGY™ H4 BioTek). […] FIG. 31D depicts Chou-Talalay Index (CI) of dose combinations (CalcuSyn). FIG. 31E depicts synergistic drug combinations (CalcuSyn) of APX3330 spiked with 50 uM CPI-613 or 75 uM CPI-613. […] Data shown is the average of 3 separate cytotoxicity assays; each assay normalized to media only control.

[2] = test system: patient-derived Pa03C tumors with CAFs; assay: Flank co-culture model of PDAC, APX3330 and Ruxolitinib; format: in vivo, mice
Experimental: Treatment of the implanted tumors started on day 11 post implant. Particularly, the co-cultures implanted included 2.5×10^6 tumor cells +/−5 ×10^6 CAFs, providing a 1:2 ratio of tumor cell to CAF. […] The mice were then administered either 50 mg/kg APX3330 BID in 4% Cr:EtOH, 50 mg/kg Rux SID pm in 4% Cr:EtOH, or combinations of the agents. Treatment schedule consisted of treating for 5 days and then giving 2 days off treatment until the tumors reached an average size of 2000 mm^3.

[3] = test system: mouse C26 colon cancer cells; assay: Colon cancer orthotopic tumors, oxaliplatin with APX3330; format: in vivo, mice
Experimental: Immune competent mice were injected with mouse C26 colon cancer cells in the caecum (FIG. 29A). Animals were treated with either oxaliplatin or oxaliplatin with APX3330 and tumor size determined compared to vehicle controls (FIG. 29B).

SMILES: CCCCCCCCC/C(=C\C1=C(C)C(=O)C(OC)=C(OC)C1=O)C(=O)O [APX3330]
- drug combination synergy (Chou-Talalay, CalcuSyn) ([1]; APX3330 75 uM and 50 uM spiked with 50 uM CPI-613, 72 hours): synergy was observed
- drug combination synergy (Chou-Talalay, CalcuSyn) ([1]; all but one APX3330 dosage (6.3 uM), spiked with 75 uM CPI-613, 72 hours): Synergy was observed
- tumor volume ([2]; Ruxolitinib (Rux) in combination with APX3330): reduction in tumor volume
- average tumor size ([2]; combination therapy: 50 mg/kg APX3330 BID with 50 mg/kg Rux SID, day 31): 1200 mm^3
- average tumor size ([2]; treatment alone, 50 mg/kg, day 28): 1750 mm³
- oxaliplatin induced loss of myenteric neurons in the colon ([3]; CRC mice): alleviated oxaliplatin induced loss of myenteric neurons
- tumor cell killing vs oxaliplatin alone ([3]; oxaliplatin with APX3330): dramatic and significantly increased tumor cell killing
